Experimental findings from ChEMBL document CHEMBL1201862, “PubChem BioAssay data set” (2004) are described below.

Among the test systems are MOLT-4; M14; 786-0; HCT-15; HT-29; SK-MEL-2; HCC 2998; NCI-H522; SF-268; OVCAR-8; SK-MEL-28; NCI-H460; OVCAR-4; SF-295; TK-10; LOX IMVI.
Holding throughout (test): NCI-60 cell line screen, 48 h

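Step 1: Grow cells in 96-well plates. Step 2: Expose to compound for 48 hours at 5 concentrations. Step 3: Interpolate endpoints linearly; if unreached, use highest concentration. The concentration for 50% growth inhibition is given as GI50.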 Calls of active or inactive are those of the source. No stated cut-off is given here; in the data, active = GI50 up to about 1.1 µM and inactive = higher. Bounds are passed on as bounds.

Consider `CC(/C=C1\CCC(CN(C)C)C1=O)c1cccc(Br)c1` (stereo not drawn), for which the GI50 in the assay with MOLT-4 was 3.85 µM (inactive); with M14 it was 14.9 µM (inactive); in the assay with 786-0, 3.41 µM (inactive); in the assay with HCT-15, 14.9 µM; with HT-29, 15.1 µM (inactive); in the assay on SK-MEL-2, 16.7 µM (inactive). Also, the GI50 is 20.4 µM (inactive) in the assay with HCC 2998; 8.05 µM (inactive) in the assay with NCI-H522; 21.7 µM (inactive) with SF-268; 18.2 µM (inactive) with OVCAR-8; 17 µM (inactive) in the assay on SK-MEL-28; 29.6 µM (inactive) with NCI-H460. For the same compound, the GI50 in the assay on OVCAR-4 was 17 µM (inactive); with SF-295 it was 22.2 µM (inactive); in the assay on TK-10, 15.7 µM (inactive).
With `N#C/C(=C/c1ccc([N+](=O)[O-])o1)c1ccccc1`, the GI50 with MOLT-4, in the assay on M14, in the assay with 786-0, in the assay on HT-29, in the assay on SK-MEL-2 and in the assay on HCC 2998 was > 100 µM (inactive) throughout. Moreover, the GI50 in the assay with NCI-H522, in the assay with SF-268, with OVCAR-8, in the assay on SK-MEL-28, with NCI-H460 and in the assay on OVCAR-4 was > 100 µM (inactive) each time. Further, the GI50 in the assay with LOX IMVI, with SF-295 and with TK-10 was > 100 µM (inactive) in each case.
Consider `CC(C)c1ccc(C2C3=C(N=C4SCC(=O)N42)C(=O)c2ccccc23)cc1` (stereo not drawn), for which the GI50 in the assay on MOLT-4 is 49.7 µM (inactive); in the assay on M14, > 100 µM (inactive); in the assay with 786-0, > 100 µM (inactive); in the assay with HCT-15, 88.9 µM; in the assay on HT-29, > 100 µM (inactive); with SK-MEL-2, > 100 µM (inactive). Moreover, the GI50 in the assay with HCC 2998 is > 100 µM (inactive); with NCI-H522, 22.4 µM (inactive); with SF-268 it was 37.1 µM (inactive); in the assay with OVCAR-8 it was > 100 µM (inactive); in the assay with SK-MEL-28, 35.1 µM (inactive); with NCI-H460 it was > 100 µM (inactive). The GI50 was 43.4 µM (inactive) in the assay with OVCAR-4, 82.8 µM (inactive) in the assay with SF-295 and > 100 µM (inactive) in the assay with TK-10.
In the case of `CC1OC(n2cc(Cl)c(=O)[nH]c2=O)C=C(OC(=O)c2ccccc2)C1=O` (stereo not drawn), the GI50 was > 100 µM (inactive) with MOLT-4; > 100 µM (inactive) in the assay with M14; > 100 µM (inactive) in the assay with 786-0; over 100 µM with HCT-15; > 100 µM (inactive) in the assay on HT-29; > 100 µM (inactive) in the assay with SK-MEL-2. Besides, the GI50 in the assay on OVCAR-8, in the assay on SK-MEL-28, with NCI-H460, in the assay on OVCAR-4, with LOX IMVI and in the assay on SF-295 was > 100 µM (inactive) each time. For the same compound, the GI50 in the assay on TK-10 is > 100 µM (inactive).
Turning to `Sc1nnc(/C=C/c2ccc(Cl)c(Cl)c2)[nH]1`, the GI50 with MOLT-4 was 59.4 µM (inactive); in the assay with 786-0, > 100 µM (inactive); in the assay on HCT-15, 87.5 µM; in the assay on HT-29, > 100 µM (inactive); in the assay with SK-MEL-2 it was > 100 µM (inactive); in the assay on HCC 2998 it was < 0.01 µM (active). The GI50 was 94 µM (inactive) in the assay on NCI-H522; > 100 µM (inactive) in the assay on SF-268; > 100 µM (inactive) in the assay with OVCAR-8; > 100 µM (inactive) in the assay with SK-MEL-28; > 100 µM (inactive) with NCI-H460; > 100 µM (inactive) in the assay on LOX IMVI. Moreover, the GI50 with SF-295 and in the assay on TK-10 was > 100 µM (inactive) each time.
With `NNC(=O)/C(=C/c1ccc(Cl)c(Cl)c1)NC(=O)c1ccccc1`, the GI50 in the assay with MOLT-4 was 80.5 µM (inactive); in the assay on M14, > 100 µM (inactive); in the assay with 786-0 it was > 100 µM (inactive); in the assay with HT-29, > 100 µM (inactive); with SK-MEL-2, > 100 µM (inactive); in the assay on HCC 2998, > 100 µM (inactive). Also, the GI50 in the assay on SF-268 is > 100 µM (inactive); in the assay with OVCAR-8, > 100 µM (inactive); in the assay on SK-MEL-28, > 100 µM (inactive); in the assay on NCI-H460, > 100 µM (inactive); in the assay on OVCAR-4, 76 µM (inactive); in the assay on LOX IMVI, > 100 µM (inactive). For the same compound, the GI50 in the assay with SF-295 and with TK-10 was > 100 µM (inactive) in each case.
Regarding `O=C(CSc1nc(-c2ccccc2)c(-c2ccccc2)[nH]1)N/N=C/c1ccc(O)cc1`, the GI50 in the assay on MOLT-4 is 15.7 µM (inactive); in the assay on M14 it was 19 µM (inactive); in the assay on 786-0, 22.6 µM (inactive); in the assay on HT-29, 18.9 µM (inactive); with SK-MEL-2 it was 24.5 µM (inactive); in the assay with HCC 2998, 19.6 µM (inactive). The GI50 was 20.2 µM (inactive) with NCI-H522; 26.6 µM (inactive) in the assay with SF-268; 17.2 µM (inactive) with OVCAR-8; 32.1 µM (inactive) with SK-MEL-28; 20 µM (inactive) in the assay on NCI-H460; 17.9 µM (inactive) in the assay on LOX IMVI. Further, the GI50 with SF-295 is 22.4 µM (inactive); in the assay on TK-10 it was 27.6 µM (inactive).
With `Cc1cc(NS(=O)(=O)c2ccc(NC(=O)c3cccc4c(N)c5ccccc5nc34)cc2)no1`, the GI50 in the assay on MOLT-4 was 28.9 µM (inactive); in the assay with M14 it was 27.5 µM (inactive); in the assay with 786-0 it was 17.9 µM (inactive); with HCT-15, 33 µM; with HT-29, 27.9 µM (inactive); with SK-MEL-2 it was 18.7 µM (inactive). The GI50 with NCI-H522 is 17 µM (inactive); with SF-268 it was 21 µM (inactive); with OVCAR-8, 21.8 µM (inactive); in the assay with SK-MEL-28, 22.1 µM (inactive); in the assay with NCI-H460, 32.9 µM (inactive); in the assay on OVCAR-4 it was 27.3 µM (inactive). Also, the GI50 in the assay with LOX IMVI was 23.4 µM (inactive); in the assay on SF-295 it was 23.6 µM (inactive); in the assay on TK-10, 43.1 µM (inactive).
As for `COC(=O)/C1=C/C2CC(/C=C(/c3ccccc3)C(=O)O1)C2`, the GI50 with MOLT-4 is 17.5 µM (inactive); with M14 it was 29.2 µM (inactive); with 786-0 it was 37.5 µM (inactive); with HCT-15, 18.8 µM; in the assay on HT-29, 26.9 µM (inactive); with NCI-H522, 16.7 µM (inactive). In addition, the GI50 was 23.1 µM (inactive) in the assay with OVCAR-8; 23.8 µM (inactive) in the assay with SK-MEL-28; 32.6 µM (inactive) in the assay with NCI-H460; 17.5 µM (inactive) with LOX IMVI; 32.9 µM (inactive) with SF-295; 32.7 µM (inactive) in the assay on TK-10.
For the compound `Cc1cc(NS(=O)(=O)c2ccc(Nc3c4ccccc4nc4c(C(=O)Nc5ccc(S(N)(=O)=O)cc5)cccc34)cc2)no1`, the GI50 was 27 µM (inactive) in the assay on MOLT-4; > 100 µM (inactive) with M14; > 100 µM (inactive) with 786-0; over 100 µM in the assay on HCT-15; > 100 µM (inactive) in the assay on HT-29; 24.1 µM (inactive) in the assay with SK-MEL-2. Also, the GI50 with NCI-H522 was 24.2 µM (inactive); in the assay on SF-268, 36.9 µM (inactive); in the assay with OVCAR-8, 51.9 µM (inactive); in the assay on SK-MEL-28, 28.9 µM (inactive); with NCI-H460, > 100 µM (inactive); in the assay with OVCAR-4 it was 23.4 µM (inactive). Besides, the GI50 was 35 µM (inactive) with LOX IMVI, > 100 µM (inactive) with SF-295 and > 100 µM (inactive) in the assay on TK-10.
On to `CC(C)=CC(=O)Oc1ccc([N+](=O)[O-])cc1`, for which the GI50 with MOLT-4 is > 100 µM (inactive); with M14 it was > 100 µM (inactive); in the assay with 786-0, > 100 µM (inactive); in the assay on HCT-15, over 100 µM; in the assay on HT-29, > 100 µM (inactive); in the assay with SK-MEL-2 it was > 100 µM (inactive). The GI50 in the assay with HCC 2998 was > 100 µM (inactive); in the assay with NCI-H522, 2.18 µM (inactive); in the assay with SF-268, > 100 µM (inactive); in the assay on OVCAR-8, > 100 µM (inactive); in the assay on NCI-H460, > 100 µM (inactive); in the assay with OVCAR-4, > 100 µM (inactive). In addition, the GI50 in the assay on SF-295 and with TK-10 was > 100 µM (inactive) throughout.
In the case of `Cc1ccccc1NC(=O)C(=O)C(C#N)c1ccc(Cl)cc1` (stereo not drawn), the GI50 in the assay on MOLT-4 is 52.6 µM (inactive); in the assay on M14 it was 45.9 µM (inactive); with 786-0 it was 28 µM (inactive); in the assay with HCT-15, 18.7 µM; with HT-29, 28.8 µM (inactive); with SK-MEL-2, 56.5 µM (inactive). The GI50 in the assay with HCC 2998 is 19.6 µM (inactive); with NCI-H522 it was 50.7 µM (inactive); with SF-268 it was 69.8 µM (inactive); in the assay with OVCAR-8 it was 46.6 µM (inactive); with SK-MEL-28 it was 67.5 µM (inactive); in the assay with NCI-H460, 21.3 µM (inactive). The GI50 is 17.3 µM (inactive) with LOX IMVI, 64.3 µM (inactive) with SF-295 and 81.5 µM (inactive) in the assay with TK-10.
In the case of `C[N+](C)(C)CC1CCCC/C1=N\OC(=O)c1ccccc1` (stereo not drawn), the GI50 was > 100 µM (inactive) with MOLT-4; > 100 µM (inactive) in the assay with M14; > 100 µM (inactive) with 786-0; over 100 µM in the assay on HCT-15; > 100 µM (inactive) in the assay with HT-29; > 100 µM (inactive) with HCC 2998. Besides, the GI50 in the assay on NCI-H522, in the assay with SF-268, in the assay with OVCAR-8, in the assay with SK-MEL-28, with NCI-H460 and in the assay with OVCAR-4 was > 100 µM (inactive) throughout. For the same compound, the values for the GI50 with LOX IMVI, in the assay with SF-295 and in the assay with TK-10 were > 100 µM (inactive), > 100 µM (inactive) and 36.1 µM (inactive), respectively.
Regarding `NS(=O)(=O)c1cc2c(cc1Cl)NC(/C(=N/NC(=O)c1ccncc1)C1C(=O)NC(=O)NC1=O)=NS2(=O)=O`, the GI50 in the assay on MOLT-4 is > 100 µM (inactive); in the assay on M14 it was > 100 µM (inactive); in the assay with 786-0, > 100 µM (inactive); in the assay on HCT-15 it was over 100 µM; in the assay on SK-MEL-2, > 100 µM (inactive); in the assay on HCC 2998, > 100 µM (inactive). Further, the GI50 in the assay on OVCAR-8, with NCI-H460, in the assay with OVCAR-4, with LOX IMVI, with SF-295 and in the assay with TK-10 was > 100 µM (inactive) each time.
